Assay results taken from patent US20150010928A1, “MEANS AND METHODS FOR ASSESSING AN ENDOCRINE DISEASE OR DISORDER” (priority 2012, published 2015).
Marks after values point to notes of the source that are not given here.

System: female rats
Assay: Plasma metabolite profiling (GC-MS, LC-MS, SPE-LC-MS) in female rats dosed once daily over 28 days (OECD 407)
Type: in vivo, rat
Design: key to 5-O-Methylsphingosine (d18:1) / Isopalmitic acid (C16:0) / Valine / Alanine / Ketoleucine / Serine / Lactate / Arginine: ratio of treated group mean to untreated control mean
Settings: high dose; for Isopalmitic acid (C16:0): Table 17a; for Alanine / Arginine / Ketoleucine / Lactate / Proline / Serine / Valine: Table 17b
Protocol: Each dose group in the studies consisted of five rats per sex. Additional groups of each 5 male and female animals served as controls. […] All animals of the animal population were kept under the same constant temperature (20-24±3° C.) and the same constant humidity (30-70%). The animals of the animal population were fed ad libitum. The food to be used was essentially free of chemical or microbial contaminants. Drinking water was also offered ad libitum. Accordingly, the water was free of chemical and microbial contaminants as laid down in the European Drinking Water Directive 98/83/EG. The illumination period was 12 hours light followed by 12 hours darkness (12 hours light, from 6:00 to 18:00, and 12 hours darkness, from 18:00 to 6:00). […] The test substances (compounds) in the Tables 1 to 17 below were dosed and administered as described in the Table 18.
In the morning of day 7, 14, and 28, blood was taken from the retroorbital venous plexus from fasted anaesthetized animals. From each animal, 1 ml of blood was collected with EDTA as anticoagulant. The samples were centrifuged for generation of plasma. All plasma samples were covered with a N2 atmosphere and then stored at −80° C. until analysis.
For mass spectrometry-based metabolite profiling analyses plasma samples were extracted and a polar and a non-polar (lipid) fraction was obtained. For GC-MS analysis, the non-polar fraction was treated with methanol under acidic conditions to yield the fatty acid methyl esters. Both fractions were further derivatised with O-methyl-hydroxyamine hydrochloride and pyridine to convert Oxogroups to O-methyloximes and subsequently with a silylating agent before analysis. In LC-MS analysis, both fractions were reconstituted in appropriate solvent mixtures. HPLC was performed by gradient elution on reversed phase separation columns. Mass spectrometric detection which allows target and high sensitivity MRM (Multiple Reaction Monitoring) profiling in parallel to a full screen analysis was applied as described in WO2003073464.
Steroids and their metabolites were measured by online SPE-LC-MS (Solid phase extraction-LC-MS).
Following comprehensive analytical validation steps, the data for each analyte were normalized against data from pool samples. These samples were run in parallel through the whole process to account for process variability. The significance of treatment group values specific for sex, treatmentduration and metabolite was determined by comparing means of the treated groups to the means of the respective untreated control groups using WELCH-test and quantified with treatment ratios versus control and p-values.
The identification of the most important biomarkers per toxicity pattern was done by a ranking of the analytes in the tables below. Therefore the metabolic changes in reference treatments of a given pattern (shown in the table) were compared with changes of the same metabolite in other unrelated treatments. […] The maximum absolute value of the respective TVALUE was taken to indicate the most important metabolite for the pattern.

Structure (SMILES) | Isopalmitic acid (C16:0) (f7, female rats) | Alanine (f7, female rats) | Arginine (f7, female rats) | Ketoleucine (f7, female rats) | Lactate (f7, female rats) | Proline (f7, female rats) | Serine (f7, female rats) | Valine (f7, female rats) | Isopalmitic acid (C16:0) (f14, female rats) | Alanine (f14, female rats) | Arginine (f14, female rats) | Ketoleucine (f14, female rats) | Lactate (f14, female rats) | Proline (f14, female rats) | Serine (f14, female rats) | Valine (f14, female rats) | Isopalmitic acid (C16:0) (f28, female rats) | Alanine (f28, female rats) | Arginine (f28, female rats) | Ketoleucine (f28, female rats) | other results
CN(N=O)C(=O)N[C@H]1C(O)O[C@H](CO)[C@@H](O)[C@@H]1O (mixture of isomers) [Streptozotocin] | 0.99 | 0.79 | 0.78 | 0.85 | 0.77 | 0.81 | 0.88 | 0.77 | 1.12 * | 0.91 | 0.88 | 0.9 | 0.83 | 0.83 | 0.83 | 0.85 | 1.3 * | 0.87 | 1.03 | 0.87 | Lactate (f28, female rats): 0.57; Proline (f28, female rats): 0.9; Serine (f28, female rats): 0.98; Valine (f28, female rats): 0.98
CCOC(=O)C(C)(C)Oc1ccc(Cl)cc1 [Clofibrate] | 0.83 * | 0.63 | 0.74 | 1.04 | 1.22 | 0.81 | 0.85 | 0.91 | 0.84 | 0.72 | 0.93 | 0.94 | 0.66 | 0.88 | 0.98 | 0.94 | 1.53 * | 0.84 | 0.92 | 0.88 | Lactate (f28, female rats): 0.83; Proline (f28, female rats): 0.85; Serine (f28, female rats): 1.03; Valine (f28, female rats): 1.14
